Drawing on BindingDB's records for doi:10.1016/j.bmcl.2016.04.028 (Chinese Academy of Sciences (Cas), 2016), this text covers IC50 for 1 molecule.

Assay [1] is described as follows: Inhibition of FGFR1 in human KG1 cells assessed as suppression of cell proliferation after 72 hrs by SRB/CCK-8 assay. On the technique in general: Tetrazolium dyes change colour on reduction, which living cells bring about.
The nature of assay [2]: Inhibition of FGFR1 in human H1581 cells assessed as suppression of cell proliferation after 72 hrs by SRB/CCK-8 assay.
The nature of assay [3]: Inhibition of FGFR3 in human RT112 cells assessed as suppression of cell proliferation after 72 hrs by SRB/CCK-8 assay.

Usually IC50 stands for the midpoint of a concentration-inhibition curve. Take `COc1cc(CCc2cc(Nc3ncnc4cc(N5CCN6CCCCC6C5)ccc34)n[nH]2)cc(OC)c1` (stereo not drawn): the concentration for half-maximal inhibition (IC50) in assay [1] was below 0.2 nM; in assay [2], below 0.5 nM; in assay [3], below 0.2 nM.
